Experiments:
[1] = tested on: phosphorylation of a threonine residue at position 212 of tau protein by DYRK1A protein; assay: Inhibitory activity on phosphorylation of tau protein in cultured cells expressing tau and DYRK1A (western blot, Thr212); assay type: cell-based; conditions: phospho-Thr212 tau
Description: The inhibitory activity of the compounds synthesized in the production examples on the phosphorylation of tau protein was evaluated by an evaluation system using the following cultured cells.
The cultured cells that can induce the expressions of tau protein and DYRK1A protein individually and that allow the phosphorylation of the tau protein to be evaluated depending on the activity of the DYRK1A protein were used in the evaluation system. […] Therefore, the inhibitory activity on the phosphorylation of the tau protein can be evaluated by inducing the expressions of both the tau protein and the DYRK1A protein, and evaluating the degree of phosphorylation of a threonine residue at position 212 of the tau protein.
The compounds 1, 4, and 6 to 9 (10 μM) were added to the evaluation system, and the phosphorylation of the tau protein was detected with the antibody that specifically recognizes the phosphorylation of a threonine residue at position 212 of the tau protein. […] The “control” represents the result of adding no compound.
The inhibitory activity of the compounds 1 and 2 on the phosphorylation of tau protein was evaluated in the same manner as the Experimental example 1.
(§1) The “control” represents the result of adding no compound.
The inhibitory activity of the compounds 3, 6, and 9 to 15 on the phosphorylation of tau protein was evaluated in the same manner as the experimental example 1. FIGS. 7 to 9 show an example of the results.

[2] = Oral absorbability and intracerebral transferability (plasma and brain tissue concentration); assay type: in vivo; conditions: ICR mouse, 100 mg/kg; for Kp / half-life: male; for Kp: brain tissue / plasma, read-out: Brain tissue/blood ratio (B/P: mL/g); for half-life: plasma and brain tissue, read-out: Half-life in blood and in brain tissue
Description: The oral absorbability and the intracerebral transferability of the compounds 1 and 2 were evaluated under the following conditions. FIG. 6 and Table 1 show an example of the results.
Experimental animal: 7-week-old male ICR mouse, oral administration
Administered vehicle: 0.5% carboxymethylcellulose
Compound dosage: 100 mg/kg
FIG. 6 and Table 1 show an example of the results of measuring a plasma concentration and a brain tissue concentration after oral administration of the compounds 1 and 2. As shown in FIG. 6 and Table 1, the results confirmed that the compounds 1 and 2 had both oral absorbability and intracerebral transferability.

[3] = tested on: retinoblastoma cell lines WERI; assay: Inhibition of growth of cancer cells (Alamar Blue); assay type: cell-based
Description: (§2) Specifically, the cells were seeded on a 24 Well plate, and the compounds at a predetermined concentration were added. After cultivation for 5 days, the number of cells was calculated by detecting the fluorescence intensity with Alamar Blue. The culture medium containing the compounds was replaced every day. FIGS. 10 to 12 show an example of the results.

DYRK1A = DYRK1A (Homo sapiens, UniProt Q13627); assay: DYRK1A inhibitory capacity in vitro; assay type: biochemical
Text: as §1

[4] = Intracerebral transferability after caudal vein administration; assay type: in vivo; conditions: male, Wistar, intravenous, rat, 2 mg/head
Description: The intracerebral transferability of the compound 1 was evaluated under the following conditions. […] In other words, the intracerebral transferability of the compound 1 was confirmed.
Experimental animal: 8-week-old male Wistar rat (about 300 g), caudal vein administration
Administered vehicle: 20% PPG/8% tween 80/saline (2 mL/head)
Compound dosage: 2 mg/head
Sampling time: 3 minutes after administration for plasma; 7 minutes after administration for cerebrospinal fluid

[5] = tested on: phosphorylation of tau protein in the brain; assay: Inhibition of stress-induced phosphorylation of tau protein in the brain; assay type: in vivo; conditions: mice, 100 mg/kg before stress (ice-cold water 5 minutes), brain tissue western blot
Description: The inhibitory activity of the compounds 1 and 2 on the phosphorylation of tau protein in the brain was evaluated. In the evaluation, a system was used which induced the phosphorylation of tau protein by imposing stress on mice (i.e., bathing the mice in ice-cold water for 5 minutes).

Oral absorbability = assay type: in vivo, B6J mouse; conditions: mouse, oral administration, 100 mg/kg, 5% gum arabic, plasma
Description: The oral absorbability of the compound 1 was evaluated under the following conditions.

[6] = tested on: PC-9-GR-step lines (gefitinib-resistant sub-lines of PC-9); assay: Growth inhibition, microscopic observation; assay type: cell-based, human; conditions: microscope
PC-9-GR-high lines = assay: Growth inhibition, microscopic observation; assay type: cell-based, human; conditions: microscope
[7] = tested on: human lung adenocarcinoma-derived cell lines (PC-9); assay: Growth inhibition, microscopic observation; assay type: cell-based; conditions: PC-9 lines, microscope
[8] = tested on: MDA-MB-453 human breast cancer cells (triple-negative); assay: Growth inhibition, adherent and non-adherent culture (Alamar Blue); assay type: cell-based; conditions: MDA-MB-453, cells cultured to prevent adhering
Description: as §2
(§3) In addition, the effect was also confirmed when the target cells were cultured to prevent them from adhering to each other.

[9] = tested on: MDA-MB-468 human breast cancer cells (triple-negative); assay: as above; assay type: cell-based; conditions: MDA-MB-468, cells cultured to prevent adhering
Description: as §2, §3

[10] = tested on: memory and learning disabilities induced by amyloid-β peptide (25-35); assay: Remedial action on memory and learning disabilities induced by amyloid-β peptide (water maze, probe test); assay type: in vivo, Swiss mice; conditions: mice, amyloid-β icv, 100 mg/kg twice a day
Description: The remedial action of the compound 2 on memory and learning disabilities was evaluated. In the evaluation, amyloid-β peptide was administered into the cerebral ventricles of mice, and an evaluation system that induces memory and learning disabilities was used (Maurice et al., 1996). The tests were performed using 6-week-old male Swiss mice, which were divided into groups of 12 (n=12). Amyloid-β peptide (25-35, sequence: Gly-Ser-Asn-Lys-Gly-Ala-Ile-Ile-Gly-Leu-Met) (SEQ ID NO: 1) or scrambled amyloid-β (25-35, sequence: Ala-Lys-Ile-Gly-Asn-Ser-Ile-Gly-Leu-Met-Gly) (SEQ ID NO: 2) which was used as control peptide, was dissolved in distilled water, and each of the peptide solutions was incubated at 37° C. for 4 days.
The compound 2 for medication was dissolved in DMSO, and then diluted with 0.5% methylcellulose, thereby preparing a 10 mg/mL solution. […]
In order to evaluate a reference memory, water maze was performed three times a day using a circular pool (140 cm in diameter and 40 cm in height) and a platform (10 cm in diameter) between the 8th day and the 12th day of the tests. […] During the recording, the total time the mice spent in one-fourth of the area of the circle, including the place where the platform had been located until the previous day, was recorded. […]

[11] = compounds of 10 μM, cells expressing tau and DYRK1A

Q: With CCN1/C(=C/C(C)=O)Sc2ccc3oc4cc(Cl)ccc4c3c21 [Compound 13, (Z)-1-(8-chloro-1-ethylbenzo[2,3]benzofuro[4,5-d]thiazol-2(1H)-ylidene)propan-2-one] as the compound, how does the “inhibitory effect on the phosphorylation of the tau protein” value (from here on “inhibitory effect on the phosphorylation”) [1, 11] read?
A: inhibitory effect

Q: For CCN1/C(=C/C(C)=O)Sc2ccc3oc4ccc(Cl)cc4c3c21 [Compound 14, (Z)-1-(9-chloro-1-ethylbenzo[2,3]benzofuro[4,5-d]thiazol-2(1H)-ylidene)propan-2-one], which “inhibitory effect on the phosphorylation” value [1, 11] is on record?
A: inhibitory effect

Q: Which “inhibitory effect on the phosphorylation” value [1, 11] does the source give for CCN1/C(=C/C(C)=O)Sc2ccc3oc4cc(C)c(C)cc4c3c21 [Compound 10, (Z)-1-(8,9-dimethyl-1-ethylbenzo[2,3]benzofuro[4,5-d]thiazol-2(1H)-ylidene)propan-2-one] here?
A: inhibitory effect

Q: With CCN1/C(=C/C(C)=O)Sc2ccc3c(c21)CCO3 [Compound 1, (Z)-1-[1-ethyl-7,8-dihydrobenzofuro[4,5-d]thiazol-2(1H)-ylidene]propan-2-one] as the compound, how does the Maximum blood concentration [2] read?
A: 1900 ng/mL

Q: And the “Maximum brain tissue concentration” value [2]?
A: 1700 ng/g

Q: What about the “Time to maximum concentration in blood and in brain tissue” value [2] of the same compound?
A: within 15 minutes

Q: What about the Kp [2] of the same compound?
A: ~0.9

Q: What about the half-life [2] of the same compound?
A: ≤ 1 h

Q: And the “inhibitory effect on the growth of the cancer cells” value [3]?
A: inhibitory effect

Q: What about the “inhibitory effect on the phosphorylation” value ([1]; compounds at 0.3 to 10 μM) of the same compound?
A: significant inhibitory effect

Q: What about the “inhibitory effect on the phosphorylation” value [1, 11] of the same compound?
A: significant inhibitory effect

Q: And the IC50 (DYRK1A)?
A: 49 nM

Q: What about the concentration at 7 min ([4]; cerebrospinal fluid, 7 minutes after administration) of the same compound?
A: 1.88 µM

Q: And the concentration at 3 min ([4]; plasma, 3 minutes after administration)?
A: 13.5 µM

Q: And the “inhibition of stress-induced phosphorylation of the tau protein in brain” value [5]?
A: could inhibit the stress-induced phosphorylation of the tau protein

Q: What about the oral absorbability (Oral absorbability) of the same compound?
A: confirmed

Q: What does the source list for CCN1/C(=C/C(C)=O)Sc2ccc3oc4ccc(C)cc4c3c21 [Compound 12, (Z)-1-(1-ethyl-9-methylbenzo[2,3]benzofuro[4,5-d]thiazol-2(1H)-ylidene)propan-2-one]?
A: apoptosis-inducing activity on the cancer cells [6]: excellent apoptosis-inducing activity; inhibitory effect on the phosphorylation of the tau protein [1, 11]: inhibitory effect; apoptosis-inducing activity on the cancer cells (PC-9-GR-high lines): excellent apoptosis-inducing activity; apoptosis-inducing activity on the cancer cells [7]: excellent apoptosis-inducing activity

Q: With O=C1NC(=S)N/C1=C\c1ccc2oc3ccccc3c2c1 [Compound 15, (Z)-5-[(dibenzo[b,d]furan-2-yl)methylene]-2-thioxoimidazolidin-4-one] as the compound, how does the “inhibitory effect on the anchorage-independent growth” value [8] read?
A: inhibitory effect

Q: And the “inhibitory effect on the anchorage-independent growth” value [9]?
A: inhibitory effect

Q: And the “inhibitory effect on the phosphorylation” value [1, 11]?
A: inhibitory effect

Q: For O=C1NC(=S)S/C1=C\c1ccc2c(c1)CCO2 [Compound 4, (Z)-5-[(2,3-dihydrobenzofuran-5-yl)methylene]-2-thioxothiazolidin-4-one], which “inhibitory effect on the phosphorylation” value [1, 11] is on record?
A: inhibitory effect

Q: Which “inhibitory effect on the phosphorylation” value [1, 11] does the source give for O=C1NC(=S)S/C1=C\c1ccc2oc3ccccc3c2c1 [Compound 6, (Z)-5-[(dibenzo[b,d]furan-2-yl)methylene]-2-thioxothiazolidin-4-one] here?
A: significant inhibitory effect

Q: With N=C1NC(=O)/C(=C/c2ccc3occc3c2)S1 [Compound 8, (Z)-5-[(benzofuran-5-yl)methylene]-2-iminothiazolidin-4-one] as the compound, how does the “inhibitory effect on the phosphorylation” value [1, 11] read?
A: significant inhibitory effect

Q: With CCN1/C(=C/C(C)=O)Sc2ccc3occc3c21 [Compound 2, (Z)-1-[1-ethyl-7,8-benzofuro[4,5-d]thiazol-2(1H)-ylidene]propan-2-one] as the compound, how does the Maximum blood concentration [2] read?
A: 8400 ng/mL

Q: And the “Maximum brain tissue concentration” value [2]?
A: 8500 ng/g

Q: And the “Time to maximum concentration in blood and in brain tissue” value [2]?
A: 2 h

Q: And the Kp [2]?
A: ~1

Q: And the half-life [2]?
A: ≥ 4 h

Q: What about the “inhibitory effect on the phosphorylation” value ([1]; compounds at 0.3 to 10 μM) of the same compound?
A: significant inhibitory effect

Q: And the IC50 (DYRK1A)?
A: 40 nM

Q: What about the “reference memory in water maze (time to reach the platform)” value ([10]; 8th to 12th day) of the same compound?
A: improved the reduced memory and learning abilities

Q: What about the “probe test (time spent around the platform)” value ([10]; 13th day) of the same compound?
A: improved the reduced memory and learning abilities

Q: What about the “inhibition of stress-induced phosphorylation of the tau protein in brain” value [5] of the same compound?
A: could inhibit the stress-induced phosphorylation of the tau protein

Q: Which “inhibitory effect on the phosphorylation” value [1, 11] does the source give for N=C1NC(=O)/C(=C/c2ccc3oc4ccccc4c3c2)S1 [Compound 9, (Z)-5-[(dibenzo[b,d]furan-2-yl)methylene]-2-iminothiazolidin-4-one] here?
A: inhibitory effect

Q: Which “inhibitory effect on the phosphorylation” value [1, 11] does the source give for CCN1/C(=C/C(C)=O)Sc2ccc3oc4cc(C)ccc4c3c21 [Compound 11, (Z)-1-(1-ethyl-8-methylbenzo[2,3]benzofuro[4,5-d]thiazol-2(1H)-ylidene)propan-2-one] here?
A: inhibitory effect

Q: Which “inhibitory effect on the phosphorylation” value [1, 11] does the source give for N=C1NC(=O)/C(=C/c2ccc3c(c2)CCO3)S1 [Compound 7, (Z)-5-[(2,3-dihydrobenzofuran-5-yl)methylene]-2-iminothiazolidin-4-one] here?
A: significant inhibitory effect

From US10017524B2, “Compound and pharmaceutical composition for neuropsychological disorder or malignant tumor” (KYOTO UNIVERSITY, priority 2012, dated 2018)
